# Patent US20060063707A1, “Compositions for enhancing memory and methods therefor” (Lifelike Biomatic, Inc., priority 2004, published 2006)
# “Also recorded” adds a separate entry of the source.
# Columns and labels:
# [1] = test system: adult mice hippocampal slices; assay: LTP induction in hippocampal slices (EPSP slopes in CA1 after theta-burst stimulation); type: cell-based
# Procedure: Adult mice hippocampal slices were prepared according to standard procedures as described in Dunwiddie and Lynch (J. Physiol. 276:353-367. 1978). Briefly, mice were decapitated following anesthesia, the brains rapidly removed and the hippocampus dissected. Transverse hippocampal slices (400 μm thick) were cut with a McIllwain tissue slicer (Stoelting Co., Wood Dale, Ill.). Slices were pre-incubated for at least 60 min in an artificial cerebrospinal fluid (aCSF) containing (in mM) NaCl (124), KCl (3), KH2PO4 (1.25), MgSO4 (2.5), CaCl2 (3.4), NaHCO3 (26), glucose (10); and L-ascorbate (2) before being placed in a recording chamber. Slices were continuously perfused with aCSF containing no added drug, 20 μM CX546, 2 μM D, L-serine, or a combination of 20 μM CX546 and 2 μM D, L-serine. A stimulating electrode was placed in the stratum radiatum at the junction of CA3 and CA1 and a recording electrode was placed in the stratum radiatum of CA1. Baseline recording with a stimulation frequency of 0.033 Hz was done for at least 10 min. After obtaining a stable baseline for 10 min, LTP was elicited in CA1 stratum radiatum by stimulation of the Schaffer collateral pathways by using high frequency stimulation of 5 bursts of 3 pulses at 100 Hz, with the bursts delivered at the theta frequency, i.e., 5 Hz. Low frequency stimulation was resumed and responses recorded for at least 30 min.
# Slopes of the extracellular postsynaptic potentials (EPSPs) were calculated and expressed as percent of the average values recorded during the 10 min baseline period. Results were averaged and expressed as means±s.e.m.
# In particular, slices were prepared as cited above and EPSPs were evoked in CA1 stratum radiatum by stimulation of the Schaffer collateral pathways once every 30 seconds. At t=0, high frequency stimulation (5 bursts of 3 pulses at 100 Hz with bursts delivered at 5 Hz) was delivered, and low frequency stimulation resumed. Slopes of EPSPs were calculated and expressed as percent over the average values during the 10 minute baseline. […] The data of FIG. 3 therefore represent the means±s.e.m., of 8 slices for control conditions (●), and 6 slices for the combination of 250 μM piracetam and 2 μM D, L-serine (▪). Results were statistically significant with ANOVA with repeated measures.
# Slices were incubated in control medium. LB-302 (100 μM) was added to the medium at t=20 min and LTP was induced as in Example 1 by using high frequency stimulation of 5 bursts of 3 pulses at 100 Hz, with the bursts delivered at the theta frequency, i.e., 5 Hz delivered at t=47 min.
# LTP = conditions: agent alone; cited from earlier work
# [2] = test system: scopolamine-induced learning and memory deficits; assay: Morris water maze, scopolamine-induced learning deficits (escape latency); type: in vivo, Male Wistar rats
# Procedure: Learning and memory performance: Learning and memory performances were tested in the conventional Morris water maze according to the following procedure. The Morris maze includes a circular water tank (150 cm in diameter) filled with water and maintained at 27° C. with an escape platform (15 cm in diameter) 18 cm from the perimeter always in the same position 2 cm beneath the surface of the water. The water is made opaque by addition of milk powder rendering the platform invisible.
# Male Wistar rats (200-230 g body weight, maintained in standard laboratory conditions) were given a single training session on one day. A training session consists of 4 consecutive trials (T1-T4) in the Morris water maze separated by 60 seconds. For each trial the animal is placed in the maze at one of two starting points equidistant from the escape platform and allowed to find the escape platform. The animal is left on the escape platform for 60 seconds before starting a new trial. […] During the 4 trials the animals start the maze twice from each starting point in a randomly determined order per animal. The time the animal takes to find the escape platform is referred to as the “escape latency.”
# Measure of escape latency in control and test animals: The ampakine, the nemdakine, and the combination of ampakine and nemdakine of the present invention were administered p.o. to test animals 60 minutes before a test session in the maze (t=−60 min). Scopolamine was administered i.p. to induce learning and memory deficits 30 minutes later, i.e., 30 minutes before the test session in the maze (t=−30 min). Scopolamine induces amnesia as shown by the failure of scopolamine-treated animals to reduce their escape latencies from trial to trial. […]
# The principal measure taken at each trial was the escape latency. Measures consisted in the time the animals took to find the platform and were analyzed by ANOVA with repeated measures. […]
# GluR4 flip [3] = biological target: T1, GluR4 flip (Homo sapiens, UniProt P48058); assay: Potentiation of L-glutamate mediated currents on HEK cells expressing GluR4 flip (Ornstein et al.); type: cell-based
# T1 construct: expressed in transfected cells; host or cells: HEK cells
# Procedure: From a study of the structure-activity relationship of the compounds of Ornstein (Ornstein, et al., 2000, ibid), a derivative of LY404187 designated 22h was chosen to provide the ampakine functionality of the new fusion molecule. The structural difference between LY404187 and the 22h derivative is that 22h has an amino substituent on the distal aromatic ring of the biphenyl group instead of a cyano substituent.
# GluR4 flip [4] = biological target: T1, GluR4 flip; conditions: HEK cells expressing GluR4 flip; read-out: potentiation of the L-glutamate mediated currents; cited from earlier work
# [5] = test system: AMPA-induced currents in cerebellar Purkinje cells as well as in hippocampal pyramidal neurons; assay: Increase of AMPA-induced currents in neurons (Gates et al.); type: cell-based
# From the text: The ampakine functionality of LB-253-4c is a biarylpropylsulfonamide (Ornstein et al., ibid). […] The new fusion molecule, LB-253-4c, therefore, likely has a different mode of action compared to that of cyclothiazide, a mode of action more directed towards deactivation instead of desensitization.
# T1 sequence (P48058 21-902): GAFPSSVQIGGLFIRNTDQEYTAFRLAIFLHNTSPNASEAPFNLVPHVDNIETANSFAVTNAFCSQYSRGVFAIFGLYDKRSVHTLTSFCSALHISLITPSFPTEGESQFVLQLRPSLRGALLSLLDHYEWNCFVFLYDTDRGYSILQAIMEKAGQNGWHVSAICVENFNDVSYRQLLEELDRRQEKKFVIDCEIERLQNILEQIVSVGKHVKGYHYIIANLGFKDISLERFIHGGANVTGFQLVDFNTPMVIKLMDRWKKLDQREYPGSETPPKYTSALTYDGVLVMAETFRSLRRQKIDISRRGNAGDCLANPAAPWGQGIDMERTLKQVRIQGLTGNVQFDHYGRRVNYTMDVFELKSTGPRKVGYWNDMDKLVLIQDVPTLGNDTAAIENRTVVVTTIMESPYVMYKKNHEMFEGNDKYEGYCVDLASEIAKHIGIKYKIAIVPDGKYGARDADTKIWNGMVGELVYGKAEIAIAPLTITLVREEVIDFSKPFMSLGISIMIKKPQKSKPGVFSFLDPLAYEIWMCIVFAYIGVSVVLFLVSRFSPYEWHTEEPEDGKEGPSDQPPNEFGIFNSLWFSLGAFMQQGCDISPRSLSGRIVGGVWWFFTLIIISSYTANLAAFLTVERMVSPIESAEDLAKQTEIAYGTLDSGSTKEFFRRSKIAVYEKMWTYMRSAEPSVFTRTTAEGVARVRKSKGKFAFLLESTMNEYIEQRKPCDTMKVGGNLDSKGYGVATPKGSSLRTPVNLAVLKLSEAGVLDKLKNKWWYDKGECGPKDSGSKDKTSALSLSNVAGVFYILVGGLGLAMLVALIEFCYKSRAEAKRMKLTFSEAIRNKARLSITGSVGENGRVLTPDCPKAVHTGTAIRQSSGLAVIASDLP
smiles,measurement,setting,value
"NC(CO)C(=O)O (racemic) [D, L-serine]",levels of potentiation / responses (EPSP slope) as compared to control slices,"[1]; 2 μM D, L-serine alone",did not modify the levels of potentiation; also recorded: did not produce any significant effect
N[C@H](CO)C(=O)O [D-serine],concentration known to facilitate LTP,LTP,10 µM
same,reversal of scopolamine-induced impairment,"[2]; 1000 mg/kg p.o. at t=−60 min, then scopolamine 0.5 mg/kg i.p.",statistically significant reversal of scopolamine-induced impairment
"NC(CO)(CC1=CCN(Cc2ccccc2)CC1)C(=O)O (centres unmarked) [LB-302, 2-amino-3-(1-benzyl-1,2,3,6-tetrahydro-pyridin-4-yl)-2-hydroxymethyl-propionic acid]",LTP amplitude,[1]; LB-302 100 μM,dramatic increase in LTP amplitude
same,baseline response,[1]; LB-302 100 μM,small increase in baseline response
NC(=O)CN1CCCC1=O [piracetam],effect on the responses (EPSP slope),[1]; piracetam 250 μM alone,did not produce any significant effect
same,reversal of scopolamine-induced learning impairment,"[2]; 500 mg/kg p.o. at t=−60 min, then scopolamine 0.5 mg/kg i.p.","trend towards a reversal of scopolamine-induced learning impairment, although this effect did not reach statistical significance"
CC(CNS(=O)(=O)C(C)C)c1ccc(-c2ccc(N)cc2)cc1 (centres unmarked) [22h],activity relative to LY404187,GluR4 flip [3],about 2 fold
CN1[C@@H]2C[C@@H](OC(=O)[C@H](CO)c3ccccc3)C[C@H]1[C@@H]1O[C@@H]12 [scopolamine],performance (escape latency) across the 4 trials,[2]; scopolamine alone 0.5 mg/kg i.p. at t=−30 min,failed to improve their performance across the 4 trials
"CC(CNS(=O)(=O)C(C)C)c1ccc(-c2ccc(C#N)cc2)cc1 (centres unmarked) [LY404187, N-2-(4-(cyanophenyl)phenyl)propyl-2-propanesulfonamide]",EC50,GluR4 flip [4],290 nM
same,potency relative to CX546,[5],about 1000 times
